This is an account of results in patent US20240165083A1, “TASIPIMIDINE FORMULATIONS AND USE THEREOF” (ORION CORPORATION, priority 2021, published 2024).

What all share (type): in vivo, dog
Series [1] concerns client-owned dogs with a history of acute anxiety and fear associated with noise due to fireworks. The experiment in a line: Clinical field study in dogs: noise anxiety (fireworks). The conditions noted are these: 30 μg/kg orally 1-3 times as needed, New Year's Eve. How it is done: (§1) Three randomized, double-blind, placebo-controlled, clinical field studies were conducted for evaluating the effectiveness and clinical safety of tasipimidine for the treatment of situational anxiety and fear-based behaviors in dogs triggered by events such as travel, noise, or owner departure. Across all three studies dogs were randomized to receive either 0.03 mg/kg of tasipimidine (n=131) or placebo (n=133) orally at home by the owner. Assessments were made using video (in the case of when left alone or car travel) or by the caretaker present during the fear inducing incident (in the case of noise anxiety). Both were assessed using a numerical rating scale with scores 1-5.
The first study was conducted in client-owned dogs with a history of acute anxiety and fear associated with noise due to fireworks. Dogs receive tasipimidine 30 μg/kg or placebo 1-3 times as needed with at least 3 hours between doses during New Year's Eve. The primary efficacy variable was the owner's assessment of the effect of study treatment on the dog's signs of acute anxiety and fear due to fireworks. The assessment was made once at least 2 hours after the last dose or at 1:00 A.M., whichever occurred later.

For series [2], the system named is client-owned dogs suffering from separation anxiety. Kind of series: Clinical field study in dogs: separation anxiety. The settings on record: 30 μg/kg orally 1-3 times a day as needed, 5-7 days a week for 5 weeks. How it is done: as §1
The second study was conducted in client-owned dogs suffering from separation anxiety. Dogs received tasipimidine 30 μg/kg or placebo 1-3 times a day as needed 5-7 days a week for 5 weeks. The primary efficacy variable was the owner's assessment of the effect of the study treatment on acute anxiety related to the owner's departure. Dog owners assessed the effect of the study treatment on their dog's signs of separation anxiety from video recordings after returning home. The owner also took into account the signs of the dog's behavior during the separation (e.g., destruction and elimination) that were not visible in the video recording.

Series [3] deals with client-owned dogs suffering from travel anxiety. The experiment in a line: Clinical field study in dogs: travel anxiety. The settings on record: single oral dose 30 μg/kg approximately 1 hour before car travel. On the procedure:
as §1
The third study was conducted in client-owned dogs suffering from travel anxiety. Dogs received a single dose of tasipimidine 30 μg/kg or placebo approximately 1 hour before car travel. The primary efficacy variable was the external observer's assessment of signs of anxiety and fear from video recordings. The owner assessed the treatment effect based on the dog's behavior during the first 10 minutes of car travel.

In another series the test system is dogs. Kind of series: Clinical safety in the three clinical field studies in dogs. The settings on record: 30 μg/kg orally. On the procedure: as §1

For `COc1cccc2c1CCOC2C1=NCCN1` (stereo not shown) [Tasipimidine, 2-(5-methoxyisochroman-1-yl)-4,5-dihydro-1H-imidazole], in series [1], the “treatment effect compared with placebo: owner's assessment of signs of acute anxiety and fear due to fireworks” value is recorded as “statistically significant treatment effect in favor of tasipimidine”. Moreover, the “treatment effect compared with placebo: owner's assessment of acute anxiety related to the owner's departure” value in series [2] was “statistically significant treatment effect in favor of tasipimidine”. In addition, the “treatment effect compared with placebo: external observer's assessment of signs of anxiety and fear from video recordings” value in series [3] is reported as “statistically significant treatment effect in favor of tasipimidine”. In addition, in the series with dogs, the “marked ataxia or clinical sedation” value was “did not produce marked ataxia or clinical sedation”.
